Results as given in PMC8626825 (Virology, 2021).

Key:
OC43 [1] = experiment: OC43 viral RNA accumulation in MRC5 cells; assay type: cell-based, human betacoronavirus (OC43); settings: MRC5, OC43, 24 hpi
SARS-CoV-2 [2] = experiment: SARS-CoV-2 RNA accumulation in MRC5-ACE2 cells; assay type: cell-based, SARS-CoV-2 isolate Hong Kong/VM20001061/2020
[3] = cited from earlier work; for maximal accumulation in plasma: healthy patients given remdesivir, ref Jorgensen et al.; for maximal accumulation in plasma / concentration in bronchoalveolar aspirates: 2020; for concentration in bronchoalveolar aspirates: remdesivir treated COVID-19 patients, ref Pan et al.
OC43 [4] = settings: for effect of co-treatment on IC50 of remdesivir against OC43-induced CPE: co-treatment with remdesivir, 5 μM lapatinib or 10 μM doramapimod
SARS-CoV-2 [5] = experiment: SARS-CoV-2-induced cytopathic effect in MRC5-ACE2 cells; assay type: cell-based
SARS-CoV-2 N protein = SARS-CoV-2 N protein accumulation in MRC5-ACE2 cells; assay type: cell-based
SARS-CoV-2 [6] = assay type: cell-based
OC43 [7] = assay type: cell-based, human betacoronavirus (OC43); settings: OC43, MRC5
SARS-CoV-2 [8] = settings: ref Dittmar et al., 2021; cited from earlier work
SARS-CoV-2 [9] = settings: SOLIDARITY trial, ref Pan et al., 2020; cited from earlier work
3CLpro [10] = settings: 2020, cited from earlier work
3CLpro [11] = settings: ref Ghahremanpour et al., 2020; cited from earlier work
[12] = lapatinib, human patients, ref Spector et al., 2015

C=CCNC1=C2C[C@@H](C)C[C@H](OC)[C@H](O)[C@@H](C)/C=C(\C)[C@H](OC(N)=O)[C@@H](OC)/C=C\C=C(/C)C(=O)NC(=CC1=O)C2=O [17-AAG]
dose blocking OC43 viral RNA accumulation relative to remdesivir (fold less) (OC43 [1]): ~10 fold | SARS-CoV-2 RNA accumulation (SARS-CoV-2 [2]): only minimally reduced SARS-CoV-2 RNA accumulation

N#C[C@@]1(c2ccc3c(N)ncnn23)O[C@H](CO)[C@@H](O)[C@H]1O [GS-441524]
maximal accumulation in plasma [3]: about 0.5 μM | concentration in bronchoalveolar aspirates [3]: ~15 nM

Cc1ccc(-n2nc(C(C)(C)C)cc2NC(=O)Nc2ccc(OCCN3CCOCC3)c3ccccc23)cc1 [doramapimod]
effect of co-treatment on IC50 of remdesivir against OC43-induced CPE (OC43 [4]): reduced the IC50 of remdesivir into the sub-μM range | SARS-CoV-2-induced CPE (SARS-CoV-2 [5]): blocked SARS-CoV-2-induced CPE | SARS-CoV-2 RNA accumulation (SARS-CoV-2 [2]): able to block SARS-CoV-2 RNA accumulation at a low μM concentration | dose of remdesivir required to abolish SARS-CoV-2 RNA accumulation (SARS-CoV-2 [2]): dramatically reduce the dose of remdesivir required | SARS-CoV-2 N protein accumulation (SARS-CoV-2 N protein): completely prevented SARS-CoV-2 N protein accumulation | dose of remdesivir required to abolish production of infectious virions (SARS-CoV-2 [6]): dramatically reduce the dose of remdesivir required

C#Cc1cccc(Nc2ncnc3cc(OCCOC)c(OCCOC)cc23)c1 [erlotinib]
identified as hit in the screen (OC43 [7]): not identified

COc1cc2ncnc(Nc3ccc(F)c(Cl)c3)c2cc1OCCCN1CCOCC1 [gefitinib]
identified as hit in the screen (OC43 [7]): not identified

CCN(CCO)CCCC(C)Nc1ccnc2cc(Cl)ccc12 (stereo not drawn) [hydroxychloroquine]
activity against SARS-CoV-2 in human lung epithelial cell lines (SARS-CoV-2 [8]): ineffective | clinical effectiveness (SARS-CoV-2 [9]): not clinically effective

CS(=O)(=O)CCNCc1ccc(-c2ccc3ncnc(Nc4ccc(OCc5cccc(F)c5)c(Cl)c4)c3c2)o1 [lapatinib]
effect of co-treatment on IC50 of remdesivir against OC43-induced CPE (OC43 [4]): reduced the IC50 of remdesivir into the sub-μM range | SARS-CoV-2-induced CPE (SARS-CoV-2 [5]): blocked SARS-CoV-2-induced CPE | concentration in tissue samples [3, 12]: 8000 to 12000 nM | plasma concentration in human patients [3, 12]: 1000 to 3000 nM | inhibition of 3CLpro activity (3CLpro [10]; pre-print, ref Drayman et al.): could, in fact, inhibit the activity of 3CLpro | inhibition of 3CLpro (experimental) (3CLpro [10]; ref Ghahremanpour et al.): did not inhibit 3CLpro | SARS-CoV-2 RNA accumulation (SARS-CoV-2 [2]): dramatic reduction in viral RNA accumulation | dose of remdesivir required to abolish SARS-CoV-2 RNA accumulation (SARS-CoV-2 [2]): dramatically reduce the dose of remdesivir required | inhibition of SARS-CoV-2 RNA replication (SARS-CoV-2 [2]): over 50,000 fold | SARS-CoV-2 N protein accumulation (SARS-CoV-2 N protein): completely prevented SARS-CoV-2 N protein accumulation | dose of remdesivir required to abolish production of infectious virions (SARS-CoV-2 [6]): dramatically reduce the dose of remdesivir required | in silico molecular docking result (3CLpro [11]): putative inhibitor of the SARS-CoV-2 protease, 3CLpro

CCC(CC)COC(=O)[C@H](C)N[P@](=O)(OC[C@H]1O[C@@](C#N)(c2ccc3c(N)ncnn23)[C@H](O)[C@@H]1O)Oc1ccccc1 [remdesivir]
IC50 of remdesivir against OC43-induced CPE (OC43 [4]; remdesivir alone, MRC5): in the μM range | clinical effectiveness (SARS-CoV-2 [9]): not clinically effective | maximal accumulation in plasma [3]: 4 to 9 µM | concentration in bronchoalveolar aspirates [3]: not detectable
